Results on 107 molecules are retold here after PubChem BioAssay AID1189 (EPA DSSTox, 2008).

Activity calls are given as the source filed them.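 The calls were made as follows: active = a tumor-causing dose value with its tumor site reported for any sex and species group of a rodent or other animal cancer study; inconclusive = only studies judged inadequate by the national testing program; inactive = tested in at least one study, none positive.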

This data set can be described thus: DSSTox (CPDBAS) Carcinogenic Potency Database Summary SingleCellCall Results. As to conditions: animal chronic carcinogenicity bioassays, CPDB summary call. Put shortly:
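Literature-derived summary: each substance receives an overall carcinogenic/non-carcinogenic category drawn from long-term bioassays in rats, mice, hamsters, dogs or primates, using the most positive sex-species experiment and minimal evidence criteria.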
With `CCC(Cl)CCC(Cl)C(Cl)CC(Cl)C(Cl)C(Cl)CCl` (configuration not stated), the outcome was active.

For `Cc1ccc(/C(=C\CN2CCCC2)c2ccccn2)cc1`, the result was inactive.

`CCOC(=O)C(O)(c1ccc(Cl)cc1)c1ccc(Cl)cc1`: the outcome was active.

Take `C[C@]12CC[C@@H]3c4ccc(OC(=O)Cc5ccc(N(CCCl)CCCl)cc5)cc4CC[C@H]3[C@@H]1CC[C@@H]2OC(=O)Cc1ccc(N(CCCl)CCCl)cc1`: the outcome was active.

For `O=C1OC(c2ccc(O)cc2)(c2ccc(O)cc2)c2ccccc21`, the result was active.

On to `O=S(=O)([O-])[O-].[Cd+2]`, for which the outcome was “active; inactive”.

As for `COc1cc(-c2ccc(N)c(OC)c2)ccc1N`, the outcome was “active; inactive”.

On to `CCN=[N+]([O-])CC`, for which the outcome was active.

On to `Nc1ncn([C@@H]2O[C@H](CO)[C@@H](O)[C@H]2O)c(=O)n1`, for which the outcome was active.

On to `CCN(Cc1cccc(S(=O)(=O)O)c1)c1ccc(C(=C2C=CC(=[N+](CC)Cc3cccc(S(=O)(=O)O)c3)C=C2)c2ccc(O)cc2S(=O)(=O)[O-])cc1`, for which the outcome was inactive.

Regarding `O=C(Nc1nc(-c2ccc([N+](=O)[O-])o2)cs1)C(F)(F)F`, the outcome was active.

Take `S=c1nc[nH]c2nc[nH]c12`: the outcome is “inactive; active”.

Consider `OCC(O)CCl` (configuration not stated), for which the result was inactive.

As to `Clc1ccc2c(c1)C(c1ccccc1)=NCc1nncn1-2`, the outcome is “inactive; active”.

In the case of `CN(N=O)c1ccc([N+](=O)[O-])cc1`, the outcome was inactive.

Turning to `O=[N+]([O-])c1cc([As](=O)(O)O)ccc1O`, the outcome was inactive.

`Oc1ccc(O)cc1`: the outcome was active.

As for `CCCCC(CC)COP(=O)(OCC(CC)CCCC)OCC(CC)CCCC` (configuration not stated), the result was active.

Consider `CNC(=O)c1c(N(C)N=O)ncn1C`, for which the result was active.

As to `OC(O)C(Cl)(Cl)Cl`, the outcome is “active; inactive”.

As for `O=S1(=O)CC=CC1`, the outcome was inactive.

Turning to `CN(C)CCOC(C)(c1ccccc1)c1ccccn1` (configuration not stated), the outcome was “active; inactive”.

For `CCOc1ccccc1C(N)=O`, the result was active.

Regarding `O=[N+]([O-])OCC(CO[N+](=O)[O-])O[N+](=O)[O-]`, the outcome was active.

As to `Cn1cnc2nc(N)[nH]c(=O)c21`, the result was inactive.

Consider `Cc1ccc(N=C=O)cc1N=C=O`, for which the outcome is “active; inactive”.

For the molecule `CC(C)OC(=O)Nc1ccccc1`, the outcome was “inactive; active”.

For `C=C1C[C@]23C[C@@]1(O)CC[C@H]2[C@@]12C=C[C@H](O)[C@@](C)(C(=O)O1)[C@H]2[C@@H]3C(=O)O`, the outcome was inactive.

Consider `CCNC(=O)N(CCN(C)C)N=O`, for which the outcome was active.

On to `[O]=[Cr](=[O])([OH])[O][Cr](=[O])(=[O])[OH]`, for which the outcome was active.

As to `CC(C)C(C(=O)OC(C#N)c1cccc(Oc2ccccc2)c1)c1ccc(Cl)cc1` (configuration not stated), the outcome was inactive.

Regarding `Nc1ccc(N=Nc2ccc(-c3ccc(N=Nc4c(S(=O)(=O)O)cc5cc(S(=O)(=O)O)c(N=Nc6ccccc6)c(O)c5c4N)cc3)cc2)c(N)c1`, the outcome was “active; inactive”.

Consider `Oc1ccccc1`, for which the result was inactive.

For the molecule `Nc1ccccc1-c1ccccc1`, the outcome is “active; inactive”.

`CSCCC(N)C(=O)O` (configuration not stated): the result was inactive.

Regarding `Nc1cnn([C@@H]2O[C@H](CO)[C@@H](O)[C@H]2O)c(=O)n1`, the outcome was inactive.

For the molecule `O=P(OCCCl)(OCCCl)OCCCl`, the outcome was active.

As to `[O]=[Nb](=[O])[OH]`, the result was inactive.

For the molecule `CNC[C@H](O)c1ccc(O)c(O)c1`, the result was inactive.

Consider `C[C@]12C=CC(=O)C=C1CC[C@@H]1[C@@H]2[C@@H](O)C[C@@]2(C)[C@H]1CC[C@]2(O)C(=O)COC(=O)CCCc1ccc(N(CCCl)CCCl)cc1`, for which the result was active.

Consider `c1cc(OCC2CO2)cc(OCC2CO2)c1` (configuration not stated), for which the outcome was active.

Regarding `N#[N+]c1cc(CCN)ccc1[O-]`, the result was active.

With `CC(C)C[C@H]1C(=O)N2CCC[C@H]2[C@]2(O)O[C@](NC(=O)[C@@H]3C=C4c5cccc6[nH]c(Br)c(c56)C[C@H]4N(C)C3)(C(C)C)C(=O)N12`, the result was active.

`NN`: the result was active.

On to `CC1CC(C)(C)CC(OOC(C)(C)C)(OOC(C)(C)C)C1` (configuration not stated), for which the outcome is “inactive; active”.

Regarding `C=CF`, the outcome is “active; inactive”.

Regarding `O=Nc1ccc(NO)cc1`, the outcome was active.

With `CCCCCN(N=O)C(=O)OCC`, the result was active.

For `CC(=O)Nc1nnc(-c2ccc([N+](=O)[O-])o2)s1`, the result was active.

Turning to `CC1CCC(C(C)C)C(O)C1` (configuration not stated), the outcome was inactive.

For the molecule `CC1(C)O[C@@H]2C[C@H]3[C@@H]4CCC5=CC(=O)C=C[C@]5(C)[C@@]4(F)[C@@H](O)C[C@]3(C)[C@]2(C(=O)CO)O1`, the result was active.

As to `Cc1cc(=O)[nH]c(=S)[nH]1`, the result was active.

`Cn1cc(OCC(O)CNC(C)(C)C)c2ccccc2c1=O` (configuration not stated): the outcome is “inactive; active”.

For `Cc1ccc(N)c(C)c1`, the result was active.

For `CCCCOC(=O)c1ccc(O)cc1`, the outcome is “inactive; active”.

Take `ClC/C=C/CCl`: the outcome is “active; inactive”.

As for `C/C=N/N(C)C=O`, the outcome was “active; inactive”.

Consider `OB(O)O`, for which the outcome was “inactive; active”.

For `Brc1cc(Br)c2cccnc2c1`, the outcome was “inactive; active”.

On to `ClCOCc1ccc(COCCl)cc1`, for which the outcome was active.

`CCOC(=O)N(C)N=O`: the result was active.

For `O=C(O)c1cccnc1`, the outcome was inactive.

In the case of `Oc1ccccc1O`, the result was active.

Turning to `O=C1OC(C(O)CO)C(O)=C1O` (configuration not stated), the result was inactive.

For `C=C1CC[C@H](O)C/C1=C/C=C1\CCC[C@]2(C)[C@@H]([C@H](C)/C=C/[C@H](C)C(C)C)CC[C@@H]12`, the outcome was inactive.

Consider `OO`, for which the outcome was “active; inactive”.

On to `CCN(CC)N=O`, for which the outcome was “active; inactive”.

`C=CCN=C=S`: the outcome is “active; inactive”.

On to `CC1CN(N=O)CC(C)N1C` (configuration not stated), for which the result was active.

For the molecule `NC(N)=Nc1nc(CSCCNc2nsnc2N)cs1`, the outcome was active.

On to `O=C(NCC1CCCCN1)c1cc(OCC(F)(F)F)ccc1OCC(F)(F)F` (configuration not stated), for which the outcome was inactive.

For the molecule `CC#N`, the outcome was inactive.

For the molecule `CCCCCCCCCCCN(C)N=O`, the outcome is “active; inactive”.

With `CC(=O)O[C@@H]1[C@@H](O)C2OC3C=C(C)C(=O)C(O)[C@@]3(CO)[C@]1(C)[C@]21CO1` (some centres not stated), the result was inactive.

As for `O=NN(CCCC(F)(F)F)CCCC(F)(F)F`, the outcome was active.

`CC1=C(CC(=O)O)c2cc(F)ccc2/C1=C\c1ccc(S(C)(=O)=O)cc1`: the result was inactive.

Take `CCn1cc(C(=O)O)c(=O)c2ccc(C)nc21`: the result was active.

Turning to `O=S(=O)(O)c1ccc2c(N=Nc3ccc(S(=O)(=O)O)c4ccccc34)c(O)c(S(=O)(=O)O)cc2c1`, the result was active.

Consider `O.[Cd+2].[Cl-].[Cl-]`, for which the outcome was inactive.

On to `Brc1cc(Br)c(-c2c(Br)c(Br)c(Br)c(Br)c2Br)c(Br)c1Br`, for which the outcome was “active; inactive”.

For the molecule `NC1=NC(=O)C(c2ccccc2)O1` (configuration not stated), the outcome is “inactive; active”.

`Clc1cc(Cl)cc(-c2cc(Cl)cc(Cl)c2)c1`: the result was inactive.

As to `CN(C)CCN(Cc1ccco1)c1ccccn1`, the outcome was “inactive; active”.

For `C=CC(=O)OCC`, the result was active.

For `CCCN(CCC)N=O`, the outcome was active.

On to `Nc1ccccc1N`, for which the outcome was “active; inactive”.

`CC(C)CN(N=O)C(=N)N[N+](=O)[O-]`: the result was inactive.

For the molecule `NC(=O)/C(=C\c1ccc([N+](=O)[O-])o1)c1ccco1`, the outcome was active.

`CO[C@H]1/C=C/O[C@@]2(C)Oc3c(C)c(O)c4c(O)c(c(/C=N/N5CCN(C)CC5)c(O)c4c3C2=O)NC(=O)/C(C)=C\C=C\[C@H](C)[C@H](O)[C@@H](C)[C@@H](O)[C@@H](C)[C@H](OC(C)=O)[C@@H]1C`: the outcome was “active; inactive”.

For `CCOC(=O)CBr`, the outcome was inactive.

As to `CCC1(c2ccccc2)C(=O)N=C(O)NC1=O` (configuration not stated), the outcome was active.

With `CS(=O)(=O)c1ccc([C@@H](O)[C@@H](CO)NC(=O)C(Cl)Cl)cc1`, the outcome was inactive.

As for `Cc1ccc(N)cc1Cl`, the outcome is “inactive; active”.

On to `COP(=O)(OC)O/C(=C\Cl)c1cc(Cl)c(Cl)cc1Cl`, for which the outcome was “active; inactive”.

In the case of `CNCc1ccc(CSCCNC(=NCC(O)c2ccc(O)cc2)NS(C)(=O)=O)o1` (configuration not stated), the outcome is “active; inactive”.

On to `COP(=S)(OC)Oc1ccc([N+](=O)[O-])cc1`, for which the outcome was inactive.

`[O]=[Bi]`: the outcome was “inactive; active”.

As to `CN1[C@@H]2CC(OC(=O)[C@@H](CO)c3ccccc3)C[C@H]1[C@@H]1O[C@@H]12` (some centres not stated), the outcome was inactive.

`CN(C)N=O`: the result was active.

For `Cc1ccc(C)c(C)c1`, the result was active.

Turning to `CCCCCCCCCC[N+](C)(C)[O-]`, the result was inactive.

As to `CN(C)C(=O)Nc1ccc(Cl)cc1`, the result was active.

As to `C=CCCl`, the outcome was “inactive; active”.

Consider `CC1(C)C(=O)NC(=O)NC1=O`, for which the outcome is “inactive; active”.

As for `CCCN(CCC)S(=O)(=O)c1ccc(C(=O)O)cc1`, the result was active.

Consider `Cc1c(C)c2c(c(C)c1O)CCC(C)(CCCC(C)CCCC(C)CCCC(C)C)O2` (configuration not stated), for which the outcome was inactive.

`Nc1ccc(Nc2ccccc2)cc1`: the result was inactive.
